Organism: Rattus norvegicus
Assay: Open TG-GATES - Regimen: Daily Repeat
Assay type: toxicity, organism-based, Sprague-Dawley
Parameters: regimen Daily Repeat, gender Male, age 6 weeks
Settings: in vivo, po, route gavage; for APTT / Bas / Eos / Fbg / Hb / Ht / Lym / MCH / MCHC / MCV / Mono / Neu / PT / Plat / RBC / Ret / WBC: tissue Blood; for KIDNEY_L / KIDNEY_R / KIDNEY_TOTAL: tissue Kidney; for LIVER: tissue Liver; for A/G / ALP / ALT / AST / BUN / CRE / Ca / Cl / DBIL / GLC / IP / K / LDH / Na / PL / RALB / TBIL / TC / TG / TP / gamma-GTP: tissue Plasma
[1] = 0 mg/kg, 72 h, dose level Control, time 3 day
[2] = 0 mg/kg, […], dose level Control, time 7 day
[3] = 0 mg/kg, […], dose level Control, time 14 day
[4] = 0 mg/kg, […], dose level Control, time 28 day
[5] = 30 mg/kg, 72 h, dose level Low, time 3 day
[6] = 30 mg/kg, […], dose level Low, time 7 day
[7] = 30 mg/kg, […], dose level Low, time 14 day
[8] = 30 mg/kg, […], dose level Low, time 28 day

## CCOC(=O)C(C)(C)Oc1ccc(Cl)cc1 [CLOFIBRATE]
[1]
  TERMINAL_BW: 239.8 g
  APTT: 20.7 s
  Bas: 0%
  Eos: 1%
  Fbg: 221 mg/dL
  Hb: 13.8 g/dL
  Ht: 39.5%
  Lym: 75%
  MCH: 21.3 pg
  MCHC: 34.9%
  MCV: 61.1 fL
  Mono: 3.2%
  Neu: 20.2%
  PT: 12.2 s
  Plat: 124.2 x10_4/uL
  RBC: 646.2 x10_4/ul
  Ret: 5.4%
  WBC: 98 x10_2/uL
  KIDNEY_L: 1 g
  KIDNEY_R: 1.1 g
  KIDNEY_TOTAL: 2.1 g
  LIVER: 12 g
  A/G: 1.6
  ALP: 881.8 IU/L
  ALT: 37.4 IU/L
  AST: 68 IU/L
  BUN: 14 mg/dL
  CRE: 0.4 mg/dL
  Ca: 11.1 mg/dL
  Cl: 102 meq/L
  DBIL: 0.088 mg/dL
  GLC: 194.2 mg/dL
  IP: 7 mg/dL
  K: 4.1 meq/L
  LDH: 230.6 IU/L
  Na: 140.6 meq/L
  PL: 162.4 mg/dL
  RALB: 3.5 g/dL
  TBIL: 0.1 mg/dL
  TC: 78 mg/dL
  TG: 137.2 mg/dL
  TP: 5.6 g/dL
  gamma-GTP: 1.2 IU/L
[2]
  TERMINAL_BW: 268.6 g
  APTT: 20.7 s
  Bas: 0%
  Eos: 0.8%
  Fbg: 238 mg/dL
  Hb: 14.4 g/dL
  Ht: 41%
  Lym: 81.6%
  MCH: 21.4 pg
  MCHC: 35.2%
  MCV: 60.8 fL
  Mono: 2.6%
  Neu: 14.6%
  PT: 11.8 s
  Plat: 118.2 x10_4/uL
  RBC: 675.8 x10_4/ul
  Ret: 5.1%
  WBC: 104.1 x10_2/uL
  KIDNEY_L: 1.1 g
  KIDNEY_R: 1.1 g
  KIDNEY_TOTAL: 2.2 g
  LIVER: 12.5 g
  A/G: 1.6
  ALP: 994.8 IU/L
  ALT: 33.8 IU/L
  AST: 64.6 IU/L
  BUN: 16.6 mg/dL
  CRE: 0.4 mg/dL
  Ca: 10.5 mg/dL
  Cl: 102.2 meq/L
  DBIL: 0.098 mg/dL
  GLC: 213.2 mg/dL
  IP: 7.2 mg/dL
  K: 3.8 meq/L
  LDH: 192.2 IU/L
  Na: 138.8 meq/L
  PL: 144.8 mg/dL
  RALB: 3.6 g/dL
  TBIL: 0.2 mg/dL
  TC: 70.2 mg/dL
  TG: 122 mg/dL
  TP: 5.8 g/dL
  gamma-GTP: 0.6 IU/L
[3]
  TERMINAL_BW: 332 g
  APTT: 19 s
  Bas: 0%
  Eos: 0.8%
  Fbg: 227.2 mg/dL
  Hb: 14.3 g/dL
  Ht: 41.2%
  Lym: 80.4%
  MCH: 20.3 pg
  MCHC: 34.6%
  MCV: 58.5 fL
  Mono: 3%
  Neu: 15%
  PT: 12.3 s
  Plat: 118.5 x10_4/uL
  RBC: 704.8 x10_4/ul
  Ret: 4.4%
  WBC: 137.8 x10_2/uL
  KIDNEY_L: 1.3 g
  KIDNEY_R: 1.3 g
  KIDNEY_TOTAL: 2.6 g
  LIVER: 14.9 g
  A/G: 1.3
  ALP: 852.2 IU/L
  ALT: 37.4 IU/L
  AST: 62 IU/L
  BUN: 16.2 mg/dL
  CRE: 0.4 mg/dL
  Ca: 10.6 mg/dL
  Cl: 101 meq/L
  DBIL: 0.082 mg/dL
  GLC: 209.4 mg/dL
  IP: 7 mg/dL
  K: 3.8 meq/L
  LDH: 155 IU/L
  Na: 140.4 meq/L
  PL: 148 mg/dL
  RALB: 3.4 g/dL
  TBIL: 0.1 mg/dL
  TC: 74.2 mg/dL
  TG: 118.4 mg/dL
  TP: 5.9 g/dL
  gamma-GTP: 0.8 IU/L
[4]
  TERMINAL_BW: 392.8 g
  APTT: 21.1 s
  Bas: 0%
  Eos: 1%
  Fbg: 219.4 mg/dL
  Hb: 15.2 g/dL
  Ht: 43.2%
  Lym: 81.4%
  MCH: 19.3 pg
  MCHC: 35.3%
  MCV: 54.9 fL
  Mono: 2.6%
  Neu: 14.4%
  PT: 12 s
  Plat: 119.8 x10_4/uL
  RBC: 786.6 x10_4/ul
  Ret: 2.1%
  WBC: 108.2 x10_2/uL
  KIDNEY_L: 1.4 g
  KIDNEY_R: 1.4 g
  KIDNEY_TOTAL: 2.8 g
  LIVER: 16 g
  A/G: 1.4
  ALP: 622.2 IU/L
  ALT: 31.2 IU/L
  AST: 57.4 IU/L
  BUN: 15.2 mg/dL
  CRE: 0.4 mg/dL
  Ca: 10.4 mg/dL
  Cl: 102.6 meq/L
  DBIL: 0.08 mg/dL
  GLC: 207.2 mg/dL
  IP: 5.9 mg/dL
  K: 3.8 meq/L
  LDH: 154.6 IU/L
  Na: 140.8 meq/L
  PL: 145.6 mg/dL
  RALB: 3.5 g/dL
  TBIL: 0.1 mg/dL
  TC: 66.8 mg/dL
  TG: 124.4 mg/dL
  TP: 6.1 g/dL
  gamma-GTP: 0.8 IU/L
[5]
  TERMINAL_BW: 242 g
  APTT: 20.9 s
  Bas: 0%
  Eos: 1%
  Fbg: 226 mg/dL
  Hb: 13.3 g/dL
  Ht: 38%
  Lym: 80.8%
  MCH: 21.4 pg
  MCHC: 35%
  MCV: 61.1 fL
  Mono: 3.2%
  Neu: 15%
  PT: 12.5 s
  Plat: 131.1 x10_4/uL
  RBC: 622.4 x10_4/ul
  Ret: 5%
  WBC: 108.6 x10_2/uL
  KIDNEY_L: 1 g
  KIDNEY_R: 1 g
  KIDNEY_TOTAL: 2.1 g
  LIVER: 12 g
  A/G: 1.6
  ALP: 1135 IU/L
  ALT: 42.4 IU/L
  AST: 72.2 IU/L
  BUN: 14.8 mg/dL
  CRE: 0.4 mg/dL
  Ca: 10.9 mg/dL
  Cl: 102 meq/L
  DBIL: 0.098 mg/dL
  GLC: 200.8 mg/dL
  IP: 6.3 mg/dL
  K: 4 meq/L
  LDH: 265.2 IU/L
  Na: 140.2 meq/L
  PL: 141 mg/dL
  RALB: 3.4 g/dL
  TBIL: 0.1 mg/dL
  TC: 67.6 mg/dL
  TG: 112.2 mg/dL
  TP: 5.6 g/dL
  gamma-GTP: 0.6 IU/L
[6]
  TERMINAL_BW: 265.8 g
  APTT: 20.2 s
  Bas: 0%
  Eos: 0.8%
  Fbg: 223.4 mg/dL
  Hb: 14.1 g/dL
  Ht: 39.7%
  Lym: 82%
  MCH: 21.9 pg
  MCHC: 35.5%
  MCV: 61.6 fL
  Mono: 2.6%
  Neu: 14.2%
  PT: 12 s
  Plat: 124.1 x10_4/uL
  RBC: 643.8 x10_4/ul
  Ret: 4.4%
  WBC: 88.1 x10_2/uL
  KIDNEY_L: 1.1 g
  KIDNEY_R: 1.1 g
  KIDNEY_TOTAL: 2.2 g
  LIVER: 12.4 g
  A/G: 1.6
  ALP: 883.2 IU/L
  ALT: 35.8 IU/L
  AST: 72 IU/L
  BUN: 16 mg/dL
  CRE: 0.4 mg/dL
  Ca: 10.4 mg/dL
  Cl: 103.2 meq/L
  DBIL: 0.07 mg/dL
  GLC: 213 mg/dL
  IP: 6.8 mg/dL
  K: 3.5 meq/L
  LDH: 245 IU/L
  Na: 141.4 meq/L
  PL: 127 mg/dL
  RALB: 3.6 g/dL
  TBIL: 0.1 mg/dL
  TC: 60 mg/dL
  TG: 96 mg/dL
  TP: 5.8 g/dL
  gamma-GTP: 0.8 IU/L
[7]
  TERMINAL_BW: 333.8 g
  APTT: 20.1 s
  Bas: 0%
  Eos: 1%
  Fbg: 219.4 mg/dL
  Hb: 13.9 g/dL
  Ht: 40.8%
  Lym: 78.4%
  MCH: 20 pg
  MCHC: 34%
  MCV: 58.9 fL
  Mono: 3.2%
  Neu: 17.2%
  PT: 12.3 s
  Plat: 131 x10_4/uL
  RBC: 694.6 x10_4/ul
  Ret: 4.8%
  WBC: 146.7 x10_2/uL
  KIDNEY_L: 1.3 g
  KIDNEY_R: 1.3 g
  KIDNEY_TOTAL: 2.6 g
  LIVER: 16 g
  A/G: 1.4
  ALP: 845.6 IU/L
  ALT: 32.4 IU/L
  AST: 56.8 IU/L
  BUN: 16.4 mg/dL
  CRE: 0.4 mg/dL
  Ca: 10.4 mg/dL
  Cl: 101.4 meq/L
  DBIL: 0.088 mg/dL
  GLC: 229.8 mg/dL
  IP: 7 mg/dL
  K: 4 meq/L
  LDH: 183.4 IU/L
  Na: 140.2 meq/L
  PL: 145.6 mg/dL
  RALB: 3.4 g/dL
  TBIL: 0.1 mg/dL
  TC: 64.8 mg/dL
  TG: 135 mg/dL
  TP: 5.8 g/dL
  gamma-GTP: 0.8 IU/L
[8]
  TERMINAL_BW: 411.4 g
  APTT: 20.8 s
  Bas: 0%
  Eos: 1%
  Fbg: 222 mg/dL
  Hb: 14.8 g/dL
  Ht: 42.7%
  Lym: 81.8%
  MCH: 18.5 pg
  MCHC: 34.7%
  MCV: 53.4 fL
  Mono: 2.6%
  Neu: 14.2%
  PT: 12.4 s
  Plat: 119.1 x10_4/uL
  RBC: 800 x10_4/ul
  Ret: 2.2%
  WBC: 140.9 x10_2/uL
  KIDNEY_L: 1.5 g
  KIDNEY_R: 1.5 g
  KIDNEY_TOTAL: 3 g
  LIVER: 16.9 g
  A/G: 1.4
  ALP: 741.4 IU/L
  ALT: 41 IU/L
  AST: 68.4 IU/L
  BUN: 14.6 mg/dL
  CRE: 0.4 mg/dL
  Ca: 10.3 mg/dL
  Cl: 102.2 meq/L
  DBIL: 0.084 mg/dL
  GLC: 207.8 mg/dL
  IP: 6.1 mg/dL
  K: 3.9 meq/L
  LDH: 165.8 IU/L
  Na: 140.4 meq/L
  PL: 134 mg/dL
  RALB: 3.4 g/dL
  TBIL: 0.1 mg/dL
  TC: 61.6 mg/dL
  TG: 121.6 mg/dL
  TP: 5.9 g/dL
  gamma-GTP: 0.8 IU/L

From ChEMBL document CHEMBL3885861, “Open TG-GATES”
